For one molecule, T50 results are on record in article PMC5602112 (2017).

Common to all, as to experiment: single-round in vitro transcription termination
What all share (details): apparent; co-transcriptional

Assay [1] has as its system metI SAM-I riboswitch transcript, U114A:A138U (RNA, riboswitch) ACUUAGAAAAUUGAAAUCGAUAUUUCUUAUCGUGAGAGGUGGAGGGACUGGCCCUUAGAAACCUCAGCAACCGGCUUGUUUUGCAUUUGCAAAGCGCCAAGGUGCUAAAACCAGCAAGCGUUUUUUAUGCUUGGAUGAUAAGAAGAAGCGUUAAACCCCUUCUUCUUAUGAAGAAGGGGUUUUUAUUUUGAAAAGGGAAGGUGUCAGCUAUAUGUCACAGCACGUUGAAACGAAAUUAGCUCAAAUUGGGAA
Assay [2] concerns metI SAM-I riboswitch transcript, wild-type (RNA, riboswitch) ACUUAGAAAAUUGAAAUCGAUAUUUCUUAUCGUGAGAGGUGGAGGGACUGGCCCUUAGAAACCUCAGCAACCGGCUUGUUUUGCAUUUGCAAAGCGCCAAGGUGCUAAAUCCAGCAAGCGUUUUUUAUGCUUGGAAGAUAAGAAGAAGCGUUAAACCCCUUCUUCUUAUGAAGAAGGGGUUUUUAUUUUGAAAAGGGAAGGUGUCAGCUAUAUGUCACAGCACGUUGAAACGAAAUUAGCUCAAAUUGGGAA
The subject of assay [3] is metI SAM-I riboswitch transcript, GUU (U114A:A137U:A138U) (RNA, riboswitch) ACUUAGAAAAUUGAAAUCGAUAUUUCUUAUCGUGAGAGGUGGAGGGACUGGCCCUUAGAAACCUCAGCAACCGGCUUGUUUUGCAUUUGCAAAGCGCCAAGGUGCUAAAACCAGCAAGCGUUUUUUAUGCUUGGUUGAUAAGAAGAAGCGUUAAACCCCUUCUUCUUAUGAAGAAGGGGUUUUUAUUUUGAAAAGGGAAGGUGUCAGCUAUAUGUCACAGCACGUUGAAACGAAAUUAGCUCAAAUUGGGAA

`C[S+](CC[C@H](N)C(=O)O)C[C@H]1O[C@@H](n2cnc3c(N)ncnc32)[C@H](O)[C@@H]1O` (stereo partly drawn): the T50 in assay [1] is listed as ~ 673 nM; in assay [2] it was ~ 183 nM; in assay [3] it was ~ 1.3 µM.
